This experiment addresses T1, C5a receptor (Homo sapiens, UniProt P21730).
T1 sequence (P21730 1-350): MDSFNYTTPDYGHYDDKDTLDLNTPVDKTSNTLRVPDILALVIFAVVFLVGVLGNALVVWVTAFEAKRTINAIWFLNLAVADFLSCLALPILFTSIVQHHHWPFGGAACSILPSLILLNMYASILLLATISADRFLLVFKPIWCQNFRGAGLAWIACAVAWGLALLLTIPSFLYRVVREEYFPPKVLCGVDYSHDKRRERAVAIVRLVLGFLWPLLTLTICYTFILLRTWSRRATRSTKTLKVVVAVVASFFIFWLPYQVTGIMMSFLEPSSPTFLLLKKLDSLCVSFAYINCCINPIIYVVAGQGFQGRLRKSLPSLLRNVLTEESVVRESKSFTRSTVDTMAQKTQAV
Nature of the experiment: C5a receptor blocking activity of the peptides of the invention.

The structures appear in SMILES notation. Peptide text beside a SMILES is read from it.

Take `C[C@H](NC(=O)CNC(=O)[C@@H](N)CC(=O)O)C(=O)O` [Asp-Gly-Ala] (H-Asp-Gly-Ala-OH): the C5a blocking activity result was “displays C5a blocking activity”.

Source of the values: patent US4692511A, “Peptide antagonists for the C5a anaphylatoxin” (Immunetech Pharmaceuticals, priority 1984, dated 1987).
